Experimental data: PubChem BioAssay (NCI)
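1) Cells in 96-well plates. 2) Compound, 48 h, 5 concentrations. 3) Linear interpolation between surrounding doses. 4) Unreached endpoint = highest concentration. At the TGI there is no net growth.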

Tests used:
Assay in all cases: DTP human tumour cell line panel, 48 h
[1] = test system: 786-0 renal
[2] = test system: A549 NSCLC
[3] = test system: ACHN renal
[4] = test system: CAKI-1 renal
[5] = test system: CCRF-CEM leukemia
[6] = test system: COLO 205 colon
[7] = test system: DLD-1 colon
[8] = test system: DMS 114 small cell lung
[9] = test system: DMS 273 small cell lung
[10] = test system: EKVX NSCLC
[11] = test system: HCC-2998 colon
[12] = test system: HCT-116 colon
[13] = test system: HCT-15 colon
[14] = test system: HL-60(TB) leukemia
[15] = test system: HOP-62 NSCLC
[16] = test system: HT29 colon
[17] = test system: IGROV1 ovarian
[18] = test system: K-562 leukemia
[19] = test system: KM20L2 colon
[20] = test system: LOX IMVI melanoma
[21] = test system: LXFL 529 NSCLC
[22] = test system: M14 melanoma
[23] = test system: M19-MEL melanoma
[24] = test system: MALME-3M melanoma
[25] = test system: MOLT-4 leukemia
[26] = test system: NCI-H226 lung
[27] = test system: NCI-H23 lung
[28] = test system: NCI-H460 lung
[29] = test system: NCI-H522 lung
[30] = test system: OVCAR-3 ovarian
[31] = test system: OVCAR-5 ovarian
[32] = test system: OVCAR-8 ovarian
[33] = test system: RPMI-8226 leukemia
[34] = test system: RXF 393 renal
[35] = test system: SF-268 CNS
[36] = test system: SF-295 CNS
[37] = test system: SF-539 CNS
[38] = test system: SK-MEL-2 melanoma
[39] = test system: SK-MEL-28 melanoma
[40] = test system: SK-MEL-5 melanoma
[41] = test system: SK-OV-3 ovarian
[42] = test system: SN12C renal
[43] = test system: SNB-19 CNS
[44] = test system: SNB-75 CNS
[45] = test system: SNB-78 CNS
[46] = test system: SR leukemia
[47] = test system: SW-620 colon
[48] = test system: TK-10 renal
[49] = test system: U251 CNS
[50] = test system: UACC-257 melanoma
[51] = test system: UACC-62 melanoma
[52] = test system: UO-31 renal
[53] = test system: A498 renal
[54] = test system: BT-549 breast
[55] = test system: DU-145 prostate
[56] = test system: HOP-92 NSCLC
[57] = test system: HS 578T breast
[58] = test system: KM12 colon
[59] = test system: MCF7 breast
[60] = test system: MDA-MB-231 breast
[61] = test system: MDA-MB-435
[62] = test system: MDA-N
[63] = test system: NCI/ADR-RES ovarian
[64] = test system: OVCAR-4 ovarian
[65] = test system: PC-3 prostate
[66] = test system: T-47D breast

Compound: CC(C(=O)n1c2ccccc2c2ccccc21)N(c1ccccc1)c1ccccc1 (stereo unspecified)
- TGI [1]: 30.2 µM
- TGI [2]: 38.5 µM
- TGI [3]: 30.7 µM
- TGI [4]: 27.7 µM
- TGI [5]: 4.02 µM
- TGI [6]: 32 µM
- TGI [7]: 43 µM
- TGI [8]: 32.5 µM
- TGI [9]: 34.1 µM
- TGI [10]: 38.8 µM
- TGI [11]: 30.1 µM
- TGI [12]: 32.7 µM
- TGI [13]: 32.8 µM
- TGI [14]: 20.6 µM
- TGI [15]: 32 µM
- TGI [16]: 37.7 µM
- TGI [17]: 32.6 µM
- TGI [18]: 40.7 µM
- TGI [19]: 33.1 µM
- TGI [20]: 30.6 µM
- TGI [21]: 27.9 µM
- TGI [22]: 30.5 µM
- TGI [23]: 32.5 µM
- TGI [24]: 28.5 µM
- TGI [25]: 29.3 µM
- TGI [26]: 47.7 µM
- TGI [27]: 34.6 µM
- TGI [28]: > 100 µM
- TGI [29]: 6.48 µM
- TGI [30]: 31.7 µM
- TGI [31]: 33.6 µM
- TGI [32]: 37.7 µM
- TGI [33]: 36.2 µM
- TGI [34]: 28.4 µM
- TGI [35]: 36.2 µM
- TGI [36]: 37.1 µM
- TGI [37]: 34.7 µM
- TGI [38]: 28.4 µM
- TGI [39]: 34.4 µM
- TGI [40]: 35.1 µM
- TGI [41]: 36.2 µM
- TGI [42]: 41.4 µM
- TGI [43]: > 100 µM
- TGI [44]: 37.8 µM
- TGI [45]: 32 µM
- TGI [46]: 27.7 µM
- TGI [47]: 36 µM
- TGI [48]: 34.5 µM
- TGI [49]: 34.7 µM
- TGI [50]: 32.3 µM
- TGI [51]: 31.7 µM
- TGI [52]: 35.1 µM

Compound: CC1C(c2ccc3c(c2)OCO3)c2cc3c(cc2OC1N1CCOCC1)OCO3 (stereo unspecified)
- TGI [1]: > 100 µM
- TGI [53]: 65.6 µM
- TGI [2]: > 100 µM
- TGI [3]: > 100 µM
- TGI [54]: > 100 µM
- TGI [4]: > 82.7 µM
- TGI [5]: 73.3 µM
- TGI [6]: 47.4 µM
- TGI [55]: > 100 µM
- TGI [10]: > 100 µM
- TGI [11]: 65.6 µM
- TGI [12]: 47.3 µM
- TGI [13]: > 93.7 µM
- TGI [14]: > 62.2 µM
- TGI [15]: 78.6 µM
- TGI [56]: 78.4 µM
- TGI [57]: 55.2 µM
- TGI [16]: > 85 µM
- TGI [17]: > 100 µM
- TGI [18]: 67.7 µM
- TGI [58]: 94.2 µM
- TGI [20]: 60.2 µM
- TGI [22]: 76.9 µM
- TGI [24]: 97.6 µM
- TGI [59]: 65.8 µM
- TGI [60]: > 100 µM
- TGI [61]: 27.6 µM
- TGI [62]: 29.1 µM
- TGI [25]: 66.9 µM
- TGI [26]: 81.7 µM
- TGI [27]: > 100 µM
- TGI [28]: > 80.1 µM
- TGI [29]: 31.1 µM
- TGI [63]: 60.6 µM
- TGI [30]: > 93.8 µM
- TGI [64]: > 100 µM
- TGI [31]: > 100 µM
- TGI [32]: > 100 µM
- TGI [65]: > 100 µM
- TGI [33]: 61.6 µM
- TGI [34]: 51.9 µM
- TGI [35]: > 100 µM
- TGI [36]: > 93 µM
- TGI [37]: 49.5 µM
- TGI [38]: 58.8 µM
- TGI [39]: > 46.4 µM
- TGI [40]: 42.7 µM
- TGI [41]: > 100 µM
- TGI [42]: > 100 µM
- TGI [43]: 86.5 µM
- TGI [44]: 99.3 µM
- TGI [46]: > 80.2 µM
- TGI [47]: > 100 µM
- TGI [66]: > 100 µM
- TGI [48]: > 100 µM
- TGI [49]: > 83.8 µM
- TGI [50]: > 100 µM
- TGI [51]: 69.5 µM
- TGI [52]: 85 µM
